7 compounds from US8076487B2, “Pyridone derivative and herbicide” (Kumiai Chemical Industry Co., Ltd., priority 2006, dated 2011) can be followed below.

What all share (format): in vivo
Assay [1] relates to Japanese bulrush (Scirpus juncoides Roxb.). The assay is described as follows: Test Example 1: herbicidal effect by soil application to paddy field. The note with it: paddy field soil application; active ingredient 1,000 g per 1 hectare; wettable powder added dropwise to water surface the day after sowing; examined on the 21st day after application. The method in brief:
(§1)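 Plants were sown in flooded (3 cm) paddy soil and evaluated for herbicidal effect 21 days after soil application in a greenhouse.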

Assay [2] deals with heartshape false pickerelweed (Monochoria vaginalis (Burm.f.) C.Presl). Described as above. The following applies: paddy field soil application; active ingredient 1,000 g per 1 hectare; wettable powder added dropwise to water surface the day after sowing; examined on the 21st day after application. Put shortly:
as §1

The test system of assay [3] is early watergrass (Echinochloa oryzicola Vasing). Described as above. The note with it: paddy field soil application; active ingredient 1,000 g per 1 hectare; wettable powder added dropwise to water surface the day after sowing; examined on the 21st day after application. Put shortly: as §1
The test system of assay [4] is green foxtail (Setaria viridis (L.) P. Beauv.). Briefly: Test Example 3: herbicidal effect by application to upland field (foliage treatment). The following applies: 14th day after application; for herbicidal effect, Green Foxtail: foliage treatment, 1,000 g active ingredient per 1 hectare, greenhouse; for herbicidal effect (index), Green Foxtail: foliage treatment, plants grown two weeks, 1,000 g active ingredient per hectare. The method in brief:
(§2)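 Seeds went into pots of field soil and grew under glass for two weeks. The whole plant was then sprayed from above with diluted wettable powder delivering 1,000 g/ha of active ingredient. Plants stayed in the greenhouse, and injury was graded against a standard 14 days after spraying.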

The subject of assay [5] is barnyardgrass (Echinochloa crus-galli (L.) P. Beauv. var. crus-galli). The description is as above. The following applies: 14th day after application; for herbicidal effect, Barnyardgrass: foliage treatment, 1,000 g active ingredient per 1 hectare, greenhouse; for herbicidal effect (index), Barnyardgrass: foliage treatment, plants grown two weeks, 1,000 g active ingredient per hectare. The method in brief:
as §2

In assay [6] the test system is slender amaranth (Amaranthus viridis L.). The assay is described as above. The following applies: 14th day after application; for herbicidal effect, Slender Amaranth: foliage treatment, 1,000 g active ingredient per 1 hectare, greenhouse; for herbicidal effect (index), Slender Amaranth: foliage treatment, plants grown two weeks, 1,000 g active ingredient per hectare. Put shortly: as §2

For assay [7], the system named is velvetleaf (Abutilon theophrasti medicus). The description is as above. The note with it: 14th day after application; for herbicidal effect, Velvetleaf: foliage treatment, 1,000 g active ingredient per 1 hectare, greenhouse; for herbicidal effect (index), Velvetleaf: foliage treatment, plants grown two weeks, 1,000 g active ingredient per hectare. The method in brief: as §2

Assay [8] relates to green foxtail (Setaria viridis (L.) P. Beauv.). The assay is described as follows: Test Example 2: herbicidal effect by soil application to upland field. The note with it: soil surface spray, upland field soil, 1,000 g active ingredient per hectare, 21st day after application. Put shortly: (§3)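 Soil-applied wettable powder, 1,000 g a.i./ha, sprayed after sowing onto covered field soil. Effect rated on a standard scale 21 days later in a greenhouse.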

Assay [9] has as its system barnyardgrass (Echinochloa crus-galli (L.) P. Beauv. var. crus-galli). The description is as above. The note with it: soil surface spray, upland field soil, 1,000 g active ingredient per hectare, 21st day after application. Put shortly:
as §3

The test system of assay [10] is slender amaranth (Amaranthus viridis L.). Described as above. The following applies: soil surface spray, upland field soil, 1,000 g active ingredient per hectare, 21st day after application. Put shortly:
as §3

For assay [11], the system named is velvetleaf (Abutilon theophrasti medicus). Described as above. The note with it: soil surface spray, upland field soil, 1,000 g active ingredient per hectare, 21st day after application. The method in brief:
as §3

As for `Cn1ncc(C(=O)c2ccc(C(F)(F)F)n(-c3ccc4c(c3)OCO4)c2=O)c1O` [IV-97], the “herbicidal effect, Scirpus juncoides Roxb.” value in assay [1] was 5 (90% or more of herbicidal effect and crop phytotoxicity). The “herbicidal effect, Monochoria vaginalis (Burm. f.) C. Presl” value (shortened to “herbicidal effect, Monochoria vaginalis”) in assay [2] is 5 (90% or more of herbicidal effect and crop phytotoxicity). For the same compound, the “herbicidal effect, Echinochloa oryzicola Vasing” value in [3] is 5 (90% or more of herbicidal effect and crop phytotoxicity). Moreover, the “herbicidal effect, Green Foxtail” value in assay [4] was 5 (90% or more of herbicidal effect and crop phytotoxicity). Also, in [5], the “herbicidal effect, Barnyardgrass” value is 5 (90% or more of herbicidal effect and crop phytotoxicity). In [6], the “herbicidal effect, Slender Amaranth” value was 5 (90% or more of herbicidal effect and crop phytotoxicity). In [7], the “herbicidal effect, Velvetleaf” value is 5 (90% or more of herbicidal effect and crop phytotoxicity). Also, the “herbicidal effect (index), Green Foxtail” value in [8] was 4 (70 to less than 90% of herbicidal effect and crop phytotoxicity). The “herbicidal effect (index), Barnyardgrass” value in [9] is 5 (90% or more of herbicidal effect and crop phytotoxicity). Moreover, the “herbicidal effect (index), Slender Amaranth” value in assay [10] is 5 (90% or more of herbicidal effect and crop phytotoxicity). The “herbicidal effect (index), Velvetleaf” value in assay [11] is 5 (90% or more of herbicidal effect and crop phytotoxicity).

`CCCS(=O)(=O)Oc1c(C(=O)c2ccc(C(F)(F)F)n(C(C)COC)c2=O)cnn1C` (centres unmarked) [IV-37]: the “herbicidal effect, Scirpus juncoides Roxb.” value in assay [1] is 5 (90% or more of herbicidal effect and crop phytotoxicity). The “herbicidal effect, Monochoria vaginalis” value in [2] was 5 (90% or more of herbicidal effect and crop phytotoxicity). In [3], the “herbicidal effect, Echinochloa oryzicola Vasing” value was 5 (90% or more of herbicidal effect and crop phytotoxicity). For the same compound, in assay [4], the “herbicidal effect, Green Foxtail” value was 3 (50 to less than 70% of herbicidal effect and crop phytotoxicity). Moreover, the “herbicidal effect, Barnyardgrass” value in assay [5] is 5 (90% or more of herbicidal effect and crop phytotoxicity). Further, the “herbicidal effect, Slender Amaranth” value in assay [6] was 5 (90% or more of herbicidal effect and crop phytotoxicity). In [7], the “herbicidal effect, Velvetleaf” value is 5 (90% or more of herbicidal effect and crop phytotoxicity). The “herbicidal effect (index), Green Foxtail” value in [8] is 5 (90% or more of herbicidal effect and crop phytotoxicity). In assay [9], the “herbicidal effect (index), Barnyardgrass” value was 5 (90% or more of herbicidal effect and crop phytotoxicity). The “herbicidal effect (index), Slender Amaranth” value in [10] is 5 (90% or more of herbicidal effect and crop phytotoxicity). Further, the “herbicidal effect (index), Velvetleaf” value in assay [11] is 5 (90% or more of herbicidal effect and crop phytotoxicity).

For `CCNn1c(C(F)(F)F)ccc(C(=O)C2=C(O)CCCC2=O)c1=O` [I-158], the “herbicidal effect, Scirpus juncoides Roxb.” value in assay [1] was 5 (90% or more of herbicidal effect and crop phytotoxicity). Moreover, the “herbicidal effect, Monochoria vaginalis” value in assay [2] is 5 (90% or more of herbicidal effect and crop phytotoxicity). Besides, in [3], the “herbicidal effect, Echinochloa oryzicola Vasing” value was 5 (90% or more of herbicidal effect and crop phytotoxicity). Besides, the “herbicidal effect, Green Foxtail” value in assay [4] is 5 (90% or more of herbicidal effect and crop phytotoxicity). Also, the “herbicidal effect, Barnyardgrass” value in [5] is 5 (90% or more of herbicidal effect and crop phytotoxicity). In addition, the “herbicidal effect, Slender Amaranth” value in assay [6] is 5 (90% or more of herbicidal effect and crop phytotoxicity). In assay [7], the “herbicidal effect, Velvetleaf” value was 5 (90% or more of herbicidal effect and crop phytotoxicity). In assay [8], the “herbicidal effect (index), Green Foxtail” value is 5 (90% or more of herbicidal effect and crop phytotoxicity). The “herbicidal effect (index), Barnyardgrass” value in [9] was 5 (90% or more of herbicidal effect and crop phytotoxicity). For the same compound, the “herbicidal effect (index), Slender Amaranth” value in [10] was 5 (90% or more of herbicidal effect and crop phytotoxicity). In assay [11], the “herbicidal effect (index), Velvetleaf” value is 5 (90% or more of herbicidal effect and crop phytotoxicity).

Turning to `CCCn1c(C(F)(F)F)ccc(C(=O)c2cnn(C)c2OC(=O)c2ccccc2)c1=O` [IV-4], in assay [1], the “herbicidal effect, Scirpus juncoides Roxb.” value is 5 (90% or more of herbicidal effect and crop phytotoxicity). In addition, the “herbicidal effect, Monochoria vaginalis” value in assay [2] was 5 (90% or more of herbicidal effect and crop phytotoxicity). Besides, in assay [3], the “herbicidal effect, Echinochloa oryzicola Vasing” value was 5 (90% or more of herbicidal effect and crop phytotoxicity). Besides, the “herbicidal effect, Green Foxtail” value in assay [4] was 4 (70 to less than 90% of herbicidal effect and crop phytotoxicity). The “herbicidal effect, Barnyardgrass” value in assay [5] is 5 (90% or more of herbicidal effect and crop phytotoxicity). Further, the “herbicidal effect, Slender Amaranth” value in assay [6] was 5 (90% or more of herbicidal effect and crop phytotoxicity). Besides, the “herbicidal effect, Velvetleaf” value in [7] was 5 (90% or more of herbicidal effect and crop phytotoxicity). Moreover, the “herbicidal effect (index), Green Foxtail” value in assay [8] is 5 (90% or more of herbicidal effect and crop phytotoxicity). The “herbicidal effect (index), Barnyardgrass” value in [9] was 5 (90% or more of herbicidal effect and crop phytotoxicity). In addition, the “herbicidal effect (index), Slender Amaranth” value in assay [10] was 5 (90% or more of herbicidal effect and crop phytotoxicity). Further, the “herbicidal effect (index), Velvetleaf” value in assay [11] is 5 (90% or more of herbicidal effect and crop phytotoxicity).

For `CC1=NOC(Cn2c(C(F)(F)F)ccc(C(=O)C3=C(O)CCCC3=O)c2=O)C1` (centres unmarked) [I-126], the “herbicidal effect, Scirpus juncoides Roxb.” value in assay [1] was 5 (90% or more of herbicidal effect and crop phytotoxicity). Further, the “herbicidal effect, Monochoria vaginalis” value in assay [2] was 5 (90% or more of herbicidal effect and crop phytotoxicity). In addition, the “herbicidal effect, Echinochloa oryzicola Vasing” value in assay [3] is 5 (90% or more of herbicidal effect and crop phytotoxicity). Also, the “herbicidal effect, Green Foxtail” value in assay [4] was 5 (90% or more of herbicidal effect and crop phytotoxicity). Further, in assay [5], the “herbicidal effect, Barnyardgrass” value is 5 (90% or more of herbicidal effect and crop phytotoxicity). In addition, the “herbicidal effect, Slender Amaranth” value in [6] was 5 (90% or more of herbicidal effect and crop phytotoxicity). Further, the “herbicidal effect, Velvetleaf” value in assay [7] is 5 (90% or more of herbicidal effect and crop phytotoxicity). Moreover, in assay [8], the “herbicidal effect (index), Green Foxtail” value is 5 (90% or more of herbicidal effect and crop phytotoxicity). Also, the “herbicidal effect (index), Barnyardgrass” value in assay [9] is 5 (90% or more of herbicidal effect and crop phytotoxicity). In addition, the “herbicidal effect (index), Slender Amaranth” value in [10] is 5 (90% or more of herbicidal effect and crop phytotoxicity). For the same compound, the “herbicidal effect (index), Velvetleaf” value in [11] is 5 (90% or more of herbicidal effect and crop phytotoxicity).

For `O=C1CCCC(O)=C1C(=O)c1ccc(C(F)(F)F)n(-c2ccc(Cl)c(Cl)c2)c1=O` [I-98], in [1], the “herbicidal effect, Scirpus juncoides Roxb.” value is 5 (90% or more of herbicidal effect and crop phytotoxicity). Further, the “herbicidal effect, Monochoria vaginalis” value in assay [2] was 5 (90% or more of herbicidal effect and crop phytotoxicity). The “herbicidal effect, Echinochloa oryzicola Vasing” value in assay [3] was 5 (90% or more of herbicidal effect and crop phytotoxicity). Further, the “herbicidal effect (index), Green Foxtail” value in [4] was 5 (90% or more of herbicidal effect and crop phytotoxicity); in assay [8] it was 5 (90% or more of herbicidal effect and crop phytotoxicity). The “herbicidal effect (index), Barnyardgrass” value is 5 (90% or more of herbicidal effect and crop phytotoxicity) in assay [5]; 5 (90% or more of herbicidal effect and crop phytotoxicity) in assay [9]. Further, the “herbicidal effect (index), Slender Amaranth” value is 5 (90% or more of herbicidal effect and crop phytotoxicity) in [6]; 5 (90% or more of herbicidal effect and crop phytotoxicity) in [10]. In addition, the “herbicidal effect (index), Velvetleaf” value is 5 (90% or more of herbicidal effect and crop phytotoxicity) in assay [7]; 5 (90% or more of herbicidal effect and crop phytotoxicity) in [11].

`CS(=O)(=O)CCCn1c(C(F)(F)F)ccc(C(=O)C2=C(O)CCCC2=O)c1=O` [I-71]: the “herbicidal effect, Scirpus juncoides Roxb.” value in assay [1] was 5 (90% or more of herbicidal effect and crop phytotoxicity). Moreover, in assay [2], the “herbicidal effect, Monochoria vaginalis” value is 5 (90% or more of herbicidal effect and crop phytotoxicity). Also, the “herbicidal effect, Echinochloa oryzicola Vasing” value in [3] was 5 (90% or more of herbicidal effect and crop phytotoxicity). The “herbicidal effect (index), Green Foxtail” value in assay [4] was 5 (90% or more of herbicidal effect and crop phytotoxicity); in assay [8], 5 (90% or more of herbicidal effect and crop phytotoxicity). Further, the “herbicidal effect (index), Barnyardgrass” value in assay [5] is 5 (90% or more of herbicidal effect and crop phytotoxicity); in assay [9], 5 (90% or more of herbicidal effect and crop phytotoxicity). In addition, the “herbicidal effect (index), Slender Amaranth” value is 5 (90% or more of herbicidal effect and crop phytotoxicity) in [6]; 5 (90% or more of herbicidal effect and crop phytotoxicity) in assay [10]. For the same compound, the “herbicidal effect (index), Velvetleaf” value is 5 (90% or more of herbicidal effect and crop phytotoxicity) in [7]; 5 (90% or more of herbicidal effect and crop phytotoxicity) in assay [11].
